The nature of data set [1]: Antisnake venom activity against Echis carinatus venom assessed as mortality at 1.25 mg/kg preincubated for 30 mins with venom LD50 before subcutaneous administration to Swiss albino mouse measured within 24 hrs. Format: functional.
Data set [2] is described as follows: Antisnake venom activity against Echis carinatus venom assessed as mortality at 2.50 mg/kg preincubated for 30 mins with venom LD50 before subcutaneous administration to Swiss albino mouse measured within 24 hrs. Format: functional. The conditions noted are these: dose 2.5 mg/kg.
A short description of data set [3]: Antisnake venom activity against Echis carinatus venom assessed as mortality at 3.75 mg/kg preincubated for 30 mins with venom LD50 before subcutaneous administration to Swiss albino mouse measured within 24 hrs. Format: functional.
Data set [4] is described as follows: Prophylactic activity against Echis carinatus venom assessed as mortality at 3.75 mg/kg, sc administered 30 mins before injection of venom to Swiss albino mouse measured within 24 hrs. It is filed as functional. The conditions noted are these: route subcutaneous.
Data set [5] can be described thus: Curative activity against Echis carinatus venom assessed as mortality at 3.75 mg/kg, sc administered 5 mins after injection of venom to Swiss albino mouse measured within 24 hrs. It is filed as functional. To be noted: route subcutaneous.
A short description of data set [6]: Curative activity against Echis carinatus venom assessed as mortality at 3.75 mg/kg, sc administered 45 mins after injection of venom to Swiss albino mouse measured within 24 hrs. It is filed as functional. The conditions noted are these: route subcutaneous.
A short description of data set [7]: Curative activity against Echis carinatus venom assessed as mortality at 3.75 mg/kg, sc administered 30 mins after injection of venom to Swiss albino mouse measured within 24 hrs. It is filed as functional. The conditions noted are these: route subcutaneous.
Another data set relates to Mus musculus. As to the kind of experiment: Toxicity in Swiss albino mouse up to 100 mg/kg, sc. Format: organism-based. To be noted: in vivo. More on the design: dose 100 mg/kg, route subcutaneous.

1 compound from ChEMBL document CHEMBL1158269, “Ehretianone, a novel quinonoid xanthene from Ehretia buxifolia with antisnake venom activity” (J Nat Prod, 1996) can be followed below.

As for `CC(C)=CC[C@]12C(=O)C=CC(=O)[C@]13CC(C)=C[C@H]2c1cc(O)ccc1O3` [EHRETIANONE], the Activity is 43.3% in data set [1]; 26.7% in data set [2]; 13.3% in data set [3]; 16.7% in data set [4]; 21.7% in data set [5]; 45% in data set [6]. Besides, the Activity is reported as 38.3% in data set [7] and “Non-toxic” in the data set on Mus musculus.
